Columns and labels:
[1] = system: rabbit serum obtained by immunizing a rabbit with the SARS-CoV strain Frankfurt 1; format: binding; design: Binding of a rabbit serum to linear peptides / Binding of a rabbit serum to looped peptides / Rabbit serum linear peptides / Rabbit serum looped peptides / Binding of a rabbit serum to linear peptides of protein N of SARS-CoV Urbani (Rabbit serum linear peptides) / Binding of a rabbit serum to looped/cyclic peptides of protein N of SARS-CoV Urbani (Rabbit serum looped peptides): unit not given here
[2] = system: control sera (pooled serum of ten healthy LUMC hospital workers; commercial negative donor pooled serum from the Dutch bloodbank); format: binding, human; design: Binding of Control serum LUMC to linear peptides / Binding of Control serum Blood-bank to linear peptides / Binding of Control serum LUMC to looped peptides / Binding of Control Serum Blood-Bank to Looped peptides / Binding of Control serum LUMC to linear peptides of the protein M of SARS-CoV Urbani / Binding of Control serum Blood-bank to linear peptides of the protein M of SARS-CoV Urbani / Binding of Control serum LUMC to looped peptides of the protein M of SARS-CoV Urbani / Binding of Control Serum Blood-Bank to Looped peptides of the protein M of SARS-CoV Urbani: unit not given here

Sequence	Rabbit serum linear peptides [1]	Rabbit serum looped peptides [1]	Binding of Control Serum Blood-Bank to Looped peptides of the protein X3 of SARS-CoV Urbani [2]	Binding of Control serum Blood-bank to linear peptides of the protein X3 of SARS-CoV Urbani [2]	Binding of Control serum LUMC to linear peptides of the protein X3 of SARS-CoV Urbani [2]	Binding of Control serum LUMC to looped peptides of the protein X3 of SARS-CoV Urbani [2]	Binding of Control Serum Blood-Bank to Looped peptides [2]	Binding of Control serum Blood-bank to linear peptides [2]	Binding of Control serum LUMC to linear peptides [2]	Binding of Control serum LUMC to looped peptides [2]	Binding of a rabbit serum to linear peptides [1]	Binding of a rabbit serum to looped peptides [1]	Binding of Control Serum Blood-Bank to Looped peptides of the protein M of SARS-CoV Urbani [2]	Binding of Control serum Blood-bank to linear peptides of the protein M of SARS-CoV Urbani [2]	Binding of Control serum LUMC to linear peptides of the protein M of SARS-CoV Urbani [2]	Binding of Control serum LUMC to looped peptides of the protein M of SARS-CoV Urbani [2]	Recognition of the peptide by the rabbit serum [1]
PLTKKNYSELDDEEP	0.2	0.4	0.8	0.8	0.9	0.8	–	–	–	–	–	–	–	–	–	–	–
PSGTYEGNSPFHPLA	0.5	0.5	–	–	–	–	0.8	0.9	0.7	0.9	–	–	–	–	–	–	–
PTVYVYSRVKNLNSS	–	–	–	–	–	–	1.1	0.8	0.5	0.8	0.7	0.7	–	–	–	–	–
QDPAGGALIARCWYL	0.5	0.9	–	–	–	–	0.8	0.7	0.3	0.6	–	–	–	–	–	–	–
QIGGYSEDRHSGVKD	–	–	–	–	–	–	0.3	0.3	0.5	0.4	0.1	0.5	–	–	–	–	–
QVLKTMSLYMAISPK	–	–	–	–	–	–	0.4	0.9	0.7	0.4	0.1	0.5	–	–	–	–	–
RHSGVKDYVVVHGYF	–	–	–	–	–	–	0.7	0.6	0.5	0.6	0.1	0.4	–	–	–	–	–
RIGTQVLKTMSLYMA	–	–	–	–	–	–	0.6	0.8	0.5	0.5	0.4	0.5	–	–	–	–	–
RQLFKPLTKKNYSEL	0.3	0.5	0.9	0.9	0.8	0.7	–	–	–	–	–	–	–	–	–	–	–
RVKNLNSSEGVPDLL	–	–	–	–	–	–	0.7	1.0	1.0	1.0	0.8	0.6	–	–	–	–	–
SIVRQLFKPLTKKNY	0.3	0.4	0.8	0.8	0.7	0.8	–	–	–	–	–	–	–	–	–	–	–
SLVKPTVYVYSRVKN	–	–	–	–	–	–	0.7	0.7	1.0	0.8	0.3	0.6	–	–	–	–	–
SSGVANPAMDPIYDE	–	–	–	–	–	–	0.7	0.5	0.5	0.7	0.1	0.6	–	–	–	–	–
SSIVRQLFKPLTKKN	0.4	0.5	0.8	1.2	1.1	0.7	–	–	–	–	–	–	–	–	–	–	–
SYYKLGASQRVGTDS	0.4	0.3	–	–	–	–	–	–	–	–	–	–	0.8	0.8	0.4	0.7	–
TAQPVKIDNASPAST	–	–	–	–	–	–	0.5	0.7	0.6	0.6	0.1	0.4	–	–	–	–	–
TGGIAIAMACIVGLM	0.5	0.3	–	–	–	–	–	–	–	–	–	–	1.1	1.1	0.6	1.1	–
THNYDYCIPYNSVTD	–	–	–	–	–	–	0.7	0.5	0.6	0.7	0.1	0.6	–	–	–	–	–
TKKNYSELDDEEPME	0.2	0.1	0.4	0.8	0.4	0.9	–	–	–	–	–	–	–	–	–	–	–
TKLVVILRIGTQVLK	–	–	–	–	–	–	0.6	0.7	0.5	0.7	0.3	0.6	–	–	–	–	–
TPKLKEDYQIGGYSE	–	–	–	–	–	–	0.7	0.5	0.6	0.9	0.1	1.2	–	–	–	–	–
TQVLKTMSLYMAISP	–	–	–	–	–	–	0.7	0.7	0.7	0.8	0.1	0.4	–	–	–	–	–
TTKLVVILRIGTQVL	–	–	–	–	–	–	0.6	0.3	0.3	0.7	–	–	–	–	–	–	recognized
TVYVYSRVKNLNSSE	–	–	–	–	–	–	0.7	0.5	0.3	0.9	0.8	0.3	–	–	–	–	–
VANPAMDPIYDEPTT	–	–	–	–	–	–	0.5	0.4	0.2	0.5	0.1	0.5	–	–	–	–	–
VCWHTHNYDYCIPYN	–	–	–	–	–	–	0.7	0.7	0.8	0.6	0.1	0.6	–	–	–	–	–
VIISSIVRQLFKPLT	0.5	0.3	0.7	0.8	0.7	0.8	–	–	–	–	–	–	–	–	–	–	–
VKNLNSSEGVPDLLV	–	–	–	–	–	–	0.8	0.7	1.1	0.9	0.3	0.6	–	–	–	–	–
VKPTVYVYSRVKNLN	–	–	–	–	–	–	0.8	0.8	0.4	0.8	0.5	0.7	–	–	–	–	–
VNVSLVKPTVYVYSR	–	–	–	–	–	–	0.6	0.6	0.8	0.8	0.4	0.6	–	–	–	–	–

— patent US20070128217A1 (priority 2003, published 2007)
